Results taken from the supplement of paper PMC11061612.

Experiments:
Assay in all cases: Bliss excess, mean over the matrix (fraction); higher = more synergy
[1] = test system: ALL-SIL (T-Lymphoblastic Leukemia)
How it was run: (§1)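 Cell lines in DMEM/F12 or RPMI with 10% FBS were plated in 1536-well plates, held 24 hours at 37°C, 5% CO2, then given two-drug dose matrices for 72 hours (DMSO typically 0.2%). Viability was read by CellTiter-Glo 2.0 luminescence and scaled as inhibition from 0 (vehicle wells) to 1 (blank wells). Combination Emax is the second-highest inhibition in the matrix; Bliss excess is observed combination effect minus expected EA + EB − EA·EB, EA and EB being single-agent effects.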

[2] = test system: COLO-679 (Melanoma)
How it was run: as §1

[3] = test system: Ca-Ski (Cervical Carcinoma)
How it was run: as §1

[4] = test system: DU-145 (Prostate Carcinoma)
How it was run: as §1

[5] = test system: G-401 (Other Solid Carcinomas)
How it was run: as §1

[6] = test system: HCC1937 (Breast Carcinoma)
How it was run: as §1

[7] = test system: LC-1-sq (Squamous Cell Lung Carcinoma)
How it was run: as §1

[8] = test system: ME-180 (Cervical Carcinoma)
How it was run: as §1

[9] = test system: ML-2 (Acute Myeloid Leukemia)
How it was run: as §1

[10] = test system: MOG-G-UVW (Low Grade Glioma)
How it was run: as §1

[11] = test system: MOLT-4 (T-Lymphoblastic Leukemia)
How it was run: as §1

[12] = test system: MV-4-11 (Acute Myeloid Leukemia)
How it was run: as §1

[13] = test system: NCI-H1092 (Small Cell Lung Carcinoma)
How it was run: as §1

[14] = test system: NCI-H1838 (Lung Adenocarcinoma)
How it was run: as §1

[15] = test system: NCI-H2122 (Lung Adenocarcinoma)
How it was run: as §1

[16] = test system: NCI-H650 (Lung Adenocarcinoma)
How it was run: as §1

[17] = test system: OACM5-1 (Esophageal Adenocarcinoma)
How it was run: as §1

[18] = test system: SK-LU-1 (Lung Adenocarcinoma)
How it was run: as §1

[19] = test system: SW872 (Other Solid Carcinomas)
How it was run: as §1

[20] = test system: SW982 (Other Solid Carcinomas)
How it was run: as §1

Row | SMILES | Bliss excess [1] | Bliss excess [2] | Bliss excess [3] | Bliss excess [4] | Bliss excess [5] | Bliss excess [6] | Bliss excess [7] | Bliss excess [8] | Bliss excess [9] | Bliss excess [10] | Bliss excess [11] | Bliss excess [12] | Bliss excess [13] | Bliss excess [14] | Bliss excess [15] | Bliss excess [16] | Bliss excess [17] | Bliss excess [18] | Bliss excess [19] | Bliss excess [20]
1 | COc1nnc2ccc(N3CCC(c4ccc(OCCN5CCN(C)C(=O)[C@H]5C)cc4)CC3)nn12 [AZD5153] + Cc1c2c(nn1C)CSCc1cc(n(C)n1)CSc1cc(c3ccccc3c1)OCCCc1c(C(=O)O)n(C)c3c-2c(Cl)ccc13 [AZD5991] (first compound max 1 µM, 7x7, partner max 1 µM) | 0.041 | -0.0101 | 0.0415 | -0.021 | 0.0312 | -0.0426 | 0.0198 | -0.0435 | 0.0582 | -0.0387 | 0.0492 | -0.0001 | 0.003 | -0.0412 | -0.0402 | -0.03 | 0.0114 | -0.061 | -0.0229 | -0.0488
2 | CC(=O)c1c(C)c2cnc(Nc3ccc(N4CCNCC4)cn3)nc2n(C2CCCC2)c1=O [Palbociclib] + CC1(C)CCC(CN2CCN(c3ccc(C(=O)NS(=O)(=O)c4ccc(NCC5CCOCC5)c([N+](=O)[O-])c4)c(Oc4cnc5[nH]ccc5c4)c3)CC2)=C(c2ccc(Cl)cc2)C1 [Venetoclax] (first compound max 10 µM, 7x7, partner max 1 µM) | 0.0428 | -0.0676 | -0.0543 | -0.0406 | 0.0529 | -0.0578 | -0.0161 | -0.0622 | 0.0634 | -0.0282 | -0.0654 | -0.0213 | -0.0224 | 0.0042 | -0.0327 | -0.0508 | 0.108 | 0.0024 | -0.0244 | -0.0508
3 | COc1nnc2ccc(N3CCC(c4ccc(OCCN5CCN(C)C(=O)[C@H]5C)cc4)CC3)nn12 [AZD5153] + Cn1cnc2c(F)c(Nc3ccc(Br)cc3Cl)c(C(=O)NOCCO)cc21 [Selumetinib] (first compound max 1 µM, 7x7, partner max 10 µM) | -0.0303 | -0.004 | 0.0324 | 0.0192 | -0.0761 | -0.0523 | 0.0073 | -0.019 | 0.075 | -0.0045 | -0.0161 | 0.0309 | -0.0592 | 0.03 | 0.0659 | 0.0339 | -0.0306 | 0.0022 | 0.0635 | -0.0039
4 | Cn1cnc2c(F)c(Nc3ccc(Br)cc3Cl)c(C(=O)NOCCO)cc21 [Selumetinib] + C[C@@H]1COCCN1C2=NC(=NC(=C2)C3(CC3)[S@](=N)(=O)C)C4=C5C=CNC5=NC=C4 [AZD6738] (first compound max 10 µM, 7x7, partner max 10 µM) | 0.0106 | -0.0526 | 0.0396 | -0.0441 | 0.0257 | 0.0414 | 0.0238 | -0.0115 | -0.0373 | -0.0662 | -0.0181 | -0.0369 | -0.0466 | -0.101 | 0.0539 | 0.0926 | -0.0096 | -0.116 | 0.0211 | -0.0499
5 | C=CCn1c(=O)c2cnc(Nc3ccc(N4CCN(C)CC4)cc3)nc2n1-c1cccc(C(C)(C)O)n1 [AZD1775] + C[C@@H]1COCCN1C2=NC(=NC(=C2)C3(CC3)[S@](=N)(=O)C)C4=C5C=CNC5=NC=C4 [AZD6738] (first compound max 1 µM, partner max 10 µM) | 0.044 | -0.0995 | 0.0052 | 0.02 | -0.0293 | -0.0717 | 0.0139 | -0.0022 | 0.0095 | 0.0202 | 0.0397 | -0.0103 | 0.0124 | -0.0173 | -0.0303 | 0.0062 | 0.0994 | -0.0774 | 0.053 | -0.019
6 | COc1nnc2ccc(N3CCC(c4ccc(OCCN5CCN(C)C(=O)[C@H]5C)cc4)CC3)nn12 [AZD5153] + C[C@@H]1COCCN1C2=NC(=NC(=C2)C3(CC3)[S@](=N)(=O)C)C4=C5C=CNC5=NC=C4 [AZD6738] (first compound max 1 µM, 7x7, partner max 10 µM) | 0.079 | 0.0003 | 0.0406 | -0.0094 | -0.0078 | -0.0516 | 0.0175 | -0.0108 | -0.0116 | -0.046 | 0.0394 | 0.0009 | 0.0493 | 0.0023 | -0.0163 | 0.0125 | 0.0593 | 0.0147 | -0.0383 | -0.0392
7 | Cc1c2c(nn1C)CSCc1cc(n(C)n1)CSc1cc(c3ccccc3c1)OCCCc1c(C(=O)O)n(C)c3c-2c(Cl)ccc13 [AZD5991] + C[C@@H]1COCCN1C2=NC(=NC(=C2)C3(CC3)[S@](=N)(=O)C)C4=C5C=CNC5=NC=C4 [AZD6738] (first compound max 1 µM, 7x7, partner max 10 µM) | 0.0316 | 0.0047 | 0.0267 | 0.0122 | -0.0341 | 0.061 | 0.047 | 0.0329 | -0.0999 | 0.0058 | 0.0318 | 0.0008 | 0.0651 | -0.0021 | 0.0199 | 0.0217 | 0.0257 | -0.0032 | 0.0323 | -0.0086
8 | Cc1c2c(nn1C)CSCc1cc(n(C)n1)CSc1cc(c3ccccc3c1)OCCCc1c(C(=O)O)n(C)c3c-2c(Cl)ccc13 [AZD5991] + C[C@@H](Nc1cc(F)cc(F)c1)c1cc(C(=O)N(C)C)cc2c(=O)cc(N3CCOCC3)oc12 [AZD8186] (first compound max 1 µM, 7x7, partner max 3 µM) | -0.0301 | 0.0127 | 0.0515 | -0.0204 | -0.0579 | -0.0001 | 0.0352 | -0.0244 | -0.0218 | -0.0451 | 0.0193 | 0.0375 | 0.0172 | 0.0503 | 0.0684 | -0.0023 | 0.0078 | 0.0004 | -0.0214 | -0.0261
9 | CN(C)CCCOc1ccc(-c2ccc3ncc4c(c3c2)n(C2CCOCC2)c(=O)n4C)cn1 [AZD0156] + CCN(CCO)CCCOc1ccc2c(Nc3cc(CC(=O)Nc4cccc(F)c4)[nH]n3)ncnc2c1 [AZD2811] (first compound max 1 µM, 7x7, partner max 1 µM) | -0.0532 | -0.0093 | 0.008 | -0.0263 | -0.0279 | -0.0387 | 0.0392 | -0.0143 | -0.0594 | 0.045 | 0.0107 | -0.0383 | -0.0102 | -0.0122 | 0.0471 | -0.0159 | -0.0366 | -0.0518 | -0.0311 | -0.0042
10 | C[C@@H]1COCCN1c1cc(C2([S@](C)(=N)=O)CC2)nc(-c2ccnc3[nH]ccc23)n1 [AZD6738] + O=C(c1cc(Cc2n[nH]c(=O)c3ccccc23)ccc1F)N1CCN(C(=O)C2CC2)CC1 [Olaparib] (first compound max 10 µM, 7x7, partner max 10 µM) | 0.0291 | -0.0163 | 0.0414 | 0.0008 | 0.0454 | -0.0665 | 0.0157 | 0.0056 | -0.0667 | 0.0629 | 0.0556 | -0.0566 | -0.0333 | -0.138 | -0.0303 | -0.0227 | 0.0071 | -0.03 | 0.0206 | -0.0202
11 | Cn1cnc2c(F)c(Nc3ccc(Br)cc3Cl)c(C(=O)NOCCO)cc21 [Selumetinib] + CCN(CCO)CCCOc1ccc2c(Nc3cc(CC(=O)Nc4cccc(F)c4)[nH]n3)ncnc2c1 [AZD2811] (first compound max 10 µM, 7x7, partner max 1 µM) | -0.0031 | -0.0381 | 0.0553 | -0.0077 | 0.0143 | 0.016 | -0.0324 | -0.0346 | -0.0371 | 0.0279 | 0.0174 | -0.04 | -0.0083 | -0.0363 | -0.0258 | 0.0056 | 0.0404 | -0.098 | -0.01 | -0.0933
12 | C=CCn1c(=O)c2cnc(Nc3ccc(N4CCN(C)CC4)cc3)nc2n1-c1cccc(C(C)(C)O)n1 [AZD1775] + O=C(c1cc(Cc2n[nH]c(=O)c3ccccc23)ccc1F)N1CCN(C(=O)C2CC2)CC1 [Olaparib] (first compound max 1 µM, partner max 10 µM) | -0.0303 | -0.0076 | -0.0474 | -0.073 | -0.0999 | -0.0813 | -0.0216 | -0.0244 | 0.0099 | -0.0329 | 0.0101 | 0.0445 | -0.0342 | -0.0774 | -0.0522 | -0.0532 | -0.0363 | -0.0306 | 0.0141 | -0.102
13 | CN(C)CCCOc1ccc(-c2ccc3ncc4c(c3c2)n(C2CCOCC2)c(=O)n4C)cn1 [AZD0156] + C=CCn1c(=O)c2cnc(Nc3ccc(N4CCN(C)CC4)cc3)nc2n1-c1cccc(C(C)(C)O)n1 [AZD1775] (first compound max 1 µM, partner max 1 µM) | -0.0205 | -0.0433 | -0.0291 | -0.0236 | -0.0734 | -0.0734 | -0.0248 | -0.0787 | -0.014 | -0.0525 | 0.0118 | -0.0306 | -0.0351 | -0.0296 | 0.0551 | -0.0593 | -0.051 | -0.0264 | -0.0183 | -0.0676
14 | CN(CCO)CC[C@H](CSc1ccccc1)Nc1ccc(S(=O)(=O)NC(=O)c2ccc(N3CCC([C@@H](O)c4ccccc4-c4ccc(Cl)cc4)CC3)cc2)cc1S(=O)(=O)C(F)(F)F [AZD4320] + CN(C)CCCOc1ccc(-c2ccc3ncc4c(c3c2)n(C2CCOCC2)c(=O)n4C)cn1 [AZD0156] (first compound max 1 µM, 7x7, partner max 1 µM) | 0.0035 | -0.068 | -0.0173 | -0.0284 | -0.0506 | 0.0007 | 0.0065 | -0.0339 | -0.0056 | -0.0476 | 0.0052 | -0.034 | -0.0078 | 0.0135 | -0.0121 | -0.0182 | -0.0016 | -0.0759 | -0.0107 | -0.0487
